Laboratory results: patent US12122780B2, “Pyrimidinyl group-containing tricyclic compound serving as c-Met inhibitor” (JIANGSU AOSAIKANG PHARMACEUTICAL CO., LTD., priority 2019, dated 2024)
pIC50: −log10 of the molar value. Where a name gives a salt, the structure may show the parent alone.

How the values were obtained:
[1] = target: c-Met enzyme (Homo sapiens (Human), UniProt P08581); test: c-Met enzyme activity inhibition (Promega c-Met Kinase Enzyme System, ADP-Glo); format: biochemical; conditions: 10 μM ATP, 60 min, 30° C.
Experimental: To detect the inhibitory effect of the compounds on c-Met enzyme activity.
The c-Met Kinase Enzyme System was purchased from Promega. Envision multi-label analyzer (PerkinElmer).
The kinase buffer in the kit was used to dilute the enzyme, substrate, ATP and inhibitor.
The compound to be tested was diluted 5-fold to the eighth concentration with a discharge gun, i.e., from 50 μM to […], with a final DMSO concentration of 5%, and double duplicate wells experiment was set. 1 μL of each concentration gradient of the inhibitor, 2 μL of c-Met enzyme (4 ng), 2 μL of a mixture of the substrate and ATP (10 μM ATP, 0.2 μg/μL poly E4Y1) were added to the microplate, and the final concentration gradient of the compound of 10 μM was diluted to 0.13 nM. The reaction system was placed at 30° C. and the reaction was carried out for 60 minutes. When the reaction was completed, 5 μL of ADP-Glo reagent was added to each well and the reaction was carried out at 30° C. for another 40 minutes, when the reaction was completed, 10 μL of kinase detection reagent was added to each well, then the reaction was carried out at 30° C. for still another 30 minutes, chemiluminescence was read by the PerkinElmer Envision multi-label analyzer with an integration time of 0.5 seconds.
Using the equation (Sample-Min)/(Max-Min)*100% to convert the original data to the inhibition rate, the IC50 value can be obtained by curve fitting with four parameters (obtained by log(inhibitor) vs. response in GraphPad Prism—Variable slope mode).

[2] = test system: Hs746T cells; test: Hs746T cell proliferation experiment (CellTiter-Glo); format: cell-based; conditions: Homo sapiens, 96 h, 4 days
Experimental: DMEM medium was purchased from Gibco, and fetal bovine serum was purchased from Hyclone. Hs746T cell line was purchased from ATCC. Envision multi-label analyzer (PerkinElmer).
Hs746T cells were seeded in a 384-well plate, 50 μL of cell suspension per well, which contained 1500 Hs746T cells. The cell plate was placed in a carbon dioxide incubator for overnight culture.
The compounds to be tested were 3-fold diluted into 9 concentrations with Tecan, double-duplicate well experiment was set, and the final compound concentrations added to the 384-well cell plate were 1000 nM to 0.15 nM. The cell plate was cultured in a carbon dioxide incubator for 4 days.
After 4 days, 25 μL of Promega CellTiter-Glo reagent was added to each well of this cell plate, and incubated at room temperature for 10 minutes to stabilize the luminescence signal. Readings were taken using a PerkinElmer Envision multi-label analyzer.
The action curves of the compounds were automatically fitted using Xlfit software and the values of IC50 were calculated, High control was the values of DMSO-treated wells and Low control was the values of cell-free medium wells.

[3] = test system: human gastric cancer Hs746T xenograft tumor; test: In vivo drug efficacy, human gastric cancer Hs746T xenograft tumor in nude mice; parameters: species or system BALB/c nude mice; conditions: for TGI (tumor growth inhibition rate) / TRTV/CRTV (relative tumor proliferation rate T/C): after 20 days; for Tumor volume: n = 6
Experimental: BALB/c nude mice, female, 6-8 weeks old, weighing about 18-22 grams, animals were raised in SPF-class animal rooms in IVC (independent air supply system, constant temperature and humidity) cages (3 per cage). All cages, bedding and water were disinfected before use. All animals had free access to standard certified commercial laboratory diets. 0.2 mL (5×10^6 cells) of Hs746T cell suspension (with matrix gel, volume ratio 1:1) was subcutaneously inoculated on the right back of each mouse, and a total of 55 mice were inoculated. When the average tumor volume reached 160 mm^3, a random stratified grouping method was adopted according to the tumor volume and animal body weight to start grouping administration. The test compound was orally administered daily, the two doses of hydrochloride of compound 25 were 3 mg/kg and 6 mg/kg, respectively, and the dose of hydrochloride of compound 39 was 3 mg/kg. The tumor diameter was measured with vernier calipers twice a week. The calculation formula of tumor volume was: V=0.5a×b^2, a and b represented the long diameter and short diameter of the tumor, respectively. The anti-tumor efficacy of the compound was evaluated by TGI (%) or the relative tumor proliferation rate T/C (%). Relative tumor proliferation rate T/C (%)=TRTV/CRTV×100% (TRTV: average RTV in the treatment group; CRTV: average RTV in the negative control group). The relative tumor volume (RTV) was calculated according to the results of tumor measurement, the calculation formula was RTV=Vt/V0, wherein V0 was the tumor volume measured at the time of the grouping administration (i.e. D0), Vt was the tumor volume of the mice at a certain measurement, and TRTV and CRTV were taken on the same day. TGI (%) reflected the tumor growth inhibition rate. TGI (%)=[(1−(average tumor volume of a certain treatment group after administration-average tumor volume of the treatment group at the beginning of administration))/(average tumor volume of the solvent control group after the administration-average tumor volume of the solvent control group at the beginning of the administration)]×100%. Statistical analysis was performed based on the tumor volume (RTV) on the 20th day, and SPSS software was used for analysis.

[4] = Pharmacokinetics of single intravenous and oral administration in mice; format: in vivo; conditions: for Exposure AUC / Vd / clearance / half-life: intravenous injection, 1 mg/kg; for Vd / clearance / half-life / bioavailability: mouse, plasma; for Vd: read-out: Apparent volume of distribution; for clearance: read-out: Clearance rate; for half-life: read-out: Half-life (T1/2) (converted); for bioavailability / Exposure AUC0-last / Maximum blood concentration / Peak time: oral administration, 10 mg/kg
Experimental: The objective of this experiment was to study the pharmacokinetics (PK) of the test compound in different species after a single intravenous and a single oral administration.
After intravenous injection or oral administration, animal blood samples were collected and the actual blood collection time was recorded. Immediately after collection, blood samples were transferred to labeled centrifuge tubes containing K2-EDTA and subsequently centrifuged and processed to obtain plasma. Plasma was transferred to pre-cooled centrifuge tubes, snap-frozen in dry ice and stored in an ultra-low temperature refrigerator at −70±10° C. until LC-MS was performed.
Plasma drug concentration data of the compounds were processed using pharmacokinetic software with a non-compartmental model. The peak concentration (Cmax) and time to peak (Tmax), as well as the quantifiable end time, were obtained directly from the blood concentration-time diagram. The log-linear trapezoidal method was used to calculate the following pharmacokinetic parameters: half-life (T1/2), apparent volume of distribution (Vdss) and clearance rate (Cl), and the area under the time-plasma concentration curve from 0 points to the end time (AUC0-last), the initial concentration (C0).

[5] = 3 mg/kg oral daily, day 0, mean ± standard error
[6] = 3 mg/kg oral daily, day 2, mean ± standard error
[7] = 3 mg/kg oral daily, day 5, mean ± standard error
[8] = 3 mg/kg oral daily, day 9, mean ± standard error
[9] = 3 mg/kg oral daily, day 12, mean ± standard error
[10] = 3 mg/kg oral daily, day 16, mean ± standard error
[11] = 3 mg/kg oral daily, day 19, mean ± standard error
[12] = 3 mg/kg oral daily, day 20, mean ± standard error

Sequence of c-Met enzyme (P08581 956-1390): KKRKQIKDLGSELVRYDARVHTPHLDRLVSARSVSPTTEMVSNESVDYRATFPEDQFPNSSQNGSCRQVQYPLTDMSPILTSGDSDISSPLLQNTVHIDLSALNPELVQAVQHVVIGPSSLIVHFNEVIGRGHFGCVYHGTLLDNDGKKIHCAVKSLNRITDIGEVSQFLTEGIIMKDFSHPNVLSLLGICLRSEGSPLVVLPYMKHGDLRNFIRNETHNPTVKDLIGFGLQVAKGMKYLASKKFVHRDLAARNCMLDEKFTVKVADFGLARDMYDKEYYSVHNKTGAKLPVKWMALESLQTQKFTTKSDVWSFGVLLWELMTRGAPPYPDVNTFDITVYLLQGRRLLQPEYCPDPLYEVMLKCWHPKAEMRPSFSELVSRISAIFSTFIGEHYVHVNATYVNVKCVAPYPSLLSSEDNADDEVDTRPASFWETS

| pIC50 [1] | Exposure AUC [4] | Vd [4] | clearance [4] | half-life [4] | bioavailability [4] | Exposure AUC0-last [4] | Maximum blood concentration [4] | Peak time [4] | SMILES | pIC50 [2] | TGI (tumor growth inhibition rate) ([3]; 3 mg/kg oral daily) | TRTV/CRTV (relative tumor proliferation rate T/C) ([3]; 3 mg/kg oral daily) | Tumor volume [3, 5] | Tumor volume [3, 6] | Tumor volume [3, 7] | Tumor volume [3, 8] | Tumor volume [3, 9] | Tumor volume [3, 10] | Tumor volume [3, 11] | Tumor volume [3, 12] | further results |
| --- | --- | --- | --- | --- | --- | --- | --- | --- | --- | --- | --- | --- | --- | --- | --- | --- | --- | --- | --- | --- | --- |
| 8.26 | 1.8 µM·h | 7.27 L/kg | 15.8 mL/min/kg | 6.73 h | 82.3% | 14.9 µM·h | 1070 nmol | 4 h | CC(C)(O)CN1CCC(COc2cnc(-c3cccc(Cn4c(=O)ccn5c6cc(C#N)ccc6nc45)c3)nc2)CC1 [Hydrochloride of compound 39] | 8.82 | 106.7% | 0.7% | 160 ± 6 mm^3 | 159 ± 8 mm^3 | 125 ± 4 mm^3 | 92 ± 3 mm^3 | 82 ± 5 mm^3 | 59 ± 7 mm^3 | 26 ± 4 mm^3 | 16 ± 3 mm^3 | Tumor volume ([3]; 3 mg/kg oral daily, day 20, mean ± standard error, listed as hydrochloride of compound 39): 16 mm^3 |
| 8.56 | 2.08 µM·h | 5.41 L/kg | 14.7 mL/min/kg | 4.51 h | 27% | 5.56 µM·h | 541 nmol | 2.33 h | CC(C)N1CCC(COc2cnc(-c3cccc(Cn4c(=O)ccn5c6cc(C#N)ccc6nc45)c3)nc2)CC1 [Hydrochloride of compound 25] | 8.66 | 96.6% | 10.2% | 160 ± 7 mm^3 | 179 ± 8 mm^3 | 173 ± 12 mm^3 | 151 ± 7 mm^3 | 144 ± 6 mm^3 | 139 ± 20 mm^3 | 221 ± 49 mm^3 | 234 ± 79 mm^3 | Tumor volume ([3]; 3 mg/kg oral daily, day 20, mean ± standard error, listed as hydrochloride of compound 25): 234 mm^3; TGI (tumor growth inhibition rate) ([3]; 6 mg/kg oral daily): 106.7%; TRTV/CRTV (relative tumor proliferation rate T/C) ([3]; 6 mg/kg oral daily): 0.7%; Tumor volume ([3]; 6 mg/kg oral daily, day 0, mean ± standard error): 160 ± 7 mm^3; Tumor volume ([3]; 6 mg/kg oral daily, day 2, mean ± standard error): 146 ± 6 mm^3; Tumor volume ([3]; 6 mg/kg oral daily, day 5, mean ± standard error): 118 ± 6 mm^3; Tumor volume ([3]; 6 mg/kg oral daily, day 9, mean ± standard error): 89 ± 9 mm^3; Tumor volume ([3]; 6 mg/kg oral daily, day 12, mean ± standard error): 83 ± 9 mm^3; Tumor volume ([3]; 6 mg/kg oral daily, day 16, mean ± standard error): 55 ± 6 mm^3; Tumor volume ([3]; 6 mg/kg oral daily, day 19, mean ± standard error): 30 ± 4 mm^3; Tumor volume ([3]; 6 mg/kg oral daily, day 20, mean ± standard error): 17 ± 4 mm^3; Tumor volume ([3]; 6 mg/kg oral daily, day 20, mean ± standard error, listed as hydrochloride of compound 25): 17 mm^3 |
